pIC50: −log10 of the molar value. Structures can show the parent of a compound that is named as a salt.
target: PDE10A; assay: Phosphodiesterase assay (TR-FRET, LANCE cAMP kit); format: biochemical; details: PDE10A (BPS Bioscience) 200 pg/well, biotin-cAMP substrate, 60 min at room temperature
Protocol: The PDE assay is based on the homogenous time-resolved fluorescence resonance energy transfer (TR-FRET) technology (LANCE® from Perkin Elmer). […] When there is PDE activity, resulting in the degradation of the cyclic nucleotide, the complex is not formed and a decrease in signal is observed.
The phosphodiesterase assay was developed using the LANCE® cAMP kit (PerkinElmer). The assay buffer contained HBSS with 5 mM HEPES, 0.1% BSA, and 1.5 mM MgCl2, pH 7.4. PDE10A (BPS Bioscience) was used at 200 pg/well (with a specific activity of 3200 pmole/min/μg with assay conditions: 10 mM Tris-HCl, pH7.4, 10 mM MgCl2, 1 mM MnCl2, 200 μM cAMP, 2.5 kU 5′ nucleotidase, 37° C., 20 min). […] Chemical compounds were dissolved in DMSO (final concentration 2% (v/v)).
In a 384-well plate, 2 μL inhibitor and 3 μL PDE were added to the well, followed by the addition of 5 μl substrate biotinylated cAMP (1:5). After 60 min incubation at room temperature, 10 μL of assay detection mixture was added to the assay plate. After 1 h at room temperature, the signal was measured on EnVision™ (Perkin Elmer).

SMILES	pIC50
CCCc1nc(O)c(Cc2cc3cc(OC)ccc3nc2CC)c2cc(OC)c(OC)cc12 [Compound 66, 4-((2-ethyl-6-methoxyquinolin-3-yl)methyl)-6,7-dimethoxy-1-propylisoquinolin-3-ol dihydrochloride]	7.80
COc1cc2c(C)nc(O)c(Cc3cnc4cccc(OC)c4c3)c2cc1OC [Compound 27, 6,7-Dimethoxy-4-((5-methoxyquinolin-3-yl)methyl)-1-methylisoquinolin-3-ol dihydrochloride]	7.77
COc1cc2c(C)nc(O)c(Cc3cccc(-c4ccncc4)n3)c2cc1OC [Compound 14, 4-([2,4′-bipyridin]-6-ylmethyl)-6,7-dimethoxy-1-methylisoquinolin-3-ol trihydrochloride]	7.00
CCNc1nc2ccc(OC)cc2cc1Cc1c(O)nc(CC)c2cc(OC)c(OC)cc12 [Compound 40, 1-Ethyl-6,7-dimethoxy-4-((6-methoxy-2-(ethylamino)quinolin-3-yl)methyl)isoquinolin-3-ol dihydrochloride]	9.40
CCCc1nc(O)c(Cc2cnc3ccccc3c2)c2cc(OC)c(OC)cc12 [Compound 74, 6,7-dimethoxy-1-propyl-4-(quinolin-3-ylmethyl)isoquinolin-3-ol hydrochloride]	8.21
CCc1nc(O)c(Cc2cnc3ccccc3c2)c2cc(OC)c(OC)cc12 [Compound 78, 1-ethyl-6,7-dimethoxy-4-(quinolin-3-ylmethyl)isoquinolin-3-ol dihydrochloride]	7.57
CCNc1nc2ccc(OCC)cc2cc1Cc1c(O)nc(CC)c2cc(OC)c(OC)cc12 [Compound 41, 4-((6-Ethoxy-2-(ethylamino)quinolin-3-yl)methyl)-1-ethyl-6,7-dimethoxyisoquinolin-3-ol dihydrochloride]	8.30
CCCCc1nc2ccc(OC)cc2cc1Cc1c(O)nc(CCC)c2cc(OC)c(OC)cc12 [Compound 71, 4-((2-Butyl-6-methoxyquinolin-3-yl)methyl)-6,7-dimethoxy-1-propylisoquinolin-3-ol dihydrochloride]	7.03
COc1ccc(-c2cncc(Cc3c(O)nc(C)c4cc(OC)c(OC)cc34)c2)cc1 [Compound 16, 6,7-dimethoxy-4-((5-(4-methoxyphenyl)pyridin-3-yl)methyl)-1-methylisoquinolin-3-ol dihydrochloride]	7.16
COc1cc2c(C)nc(O)c(Cc3ccc4ccccc4n3)c2cc1OC [Compound 23, 6,7-dimethoxy-1-methyl-4-(quinolin-2-ylmethyl)isoquinolin-3-ol dihydrochloride]	6.89
CCCc1nc(O)c(Cc2cc3cc(C)ccc3nc2NC)c2cc(OC)c(OC)cc12 [Compound 34, 6,7-dimethoxy-4-((6-methyl-2-(methylamino)quinolin-3-yl)methyl)-1-propylisoquinolin-3-ol dihydrochloride]	8.72
CCc1nc(O)c(Cc2cccc(-c3cccc(N)c3)c2)c2cc(OC)c(OC)cc12 [Compound 10, 4-((3′-amino-[1,1′-biphenyl]-3-yl)methyl)-1-ethyl-6,7-dimethoxyisoquinolin-3-ol dihydrochloride]	7.28
CCCc1nc(O)c(Cc2cnc3cc(OC)ccc3c2)c2cc(OC)c(OC)cc12 [Compound 32, 6,7-dimethoxy-4-((7-methoxyquinolin-3-yl)methyl)-1-propylisoquinolin-3-ol dihydrochloride]	8.40
CCOc1cccc2ncc(Cc3c(O)nc(C)c4cc(OC)c(OC)cc34)cc12 [Compound 28, 4-((5-Ethoxyquinolin-3-yl)methyl)-6,7-dimethoxy-1-methylisoquinolin-3-ol dihydrochloride]	8.22
CNc1nc2ccc(C)cc2cc1Cc1c(O)nc(C)c2cc(OC)c(OC)cc12 [Compound 33, 6,7-Dimethoxy-1-methyl-4-((6-methyl-2-(methylamino)quinolin-3-yl)methyl)isoquinolin-3-ol dihydrochloride]	7.89
CCNc1nc2ccc(OC)cc2cc1Cc1c(OC(C)=O)nc(CNC(C)=O)c2cc(OC)c(OC)cc12 [Compound 56, 1-(Acetamidomethyl)-4-((2-(ethylamino)-6-methoxyquinolin-3-yl)methyl)-6,7-dimethoxyisoquinolin-3-yl acetate]	6.76
COc1cc2c(C)nc(O)c(Cc3cnc4ccccc4c3)c2cc1OC [Compound 26, 6,7-Dimethoxy-1-methyl-4-(quinolin-3-ylmethyl)isoquinolin-3-ol dihydrochloride]	7.62

SMILES	pIC50
COc1cc2c(C)nc(OC)c(Cc3ccc4ccccc4c3)c2cc1OC [Compound 18, 3,6,7-trimethoxy-1-methyl-4-(naphthalen-2-ylmethyl)isoquinoline hydrochloride]	5.85
CCc1nc(O)c(Cc2cc3cc4c(cc3nc2NC)OCO4)c2cc(OC)c(OC)cc12 [Compound 61, 1-ethyl-6,7-dimethoxy-4-((6-(methylamino)-[1,3]-dioxolo[4,5-g]quinolin-7-yl)methyl)isoquinolin-3-ol dihydrochloride]	8.66
CCCc1nc(O)c(Cc2cc3cc(OC)ccc3nc2NCCOC)c2cc(OC)c(OC)cc12 [Compound 76, 6,7-dimethoxy-4-((6-methoxy-2-(2-methoxyethylamino)quinolin-3-yl)methyl)-1-propylisoquinolin-3-ol dihydrochloride]	8.64
CCCc1nc(O)c(Cc2cc3cc(OC)ccc3nc2NCCNC(C)=O)c2cc(OC)c(OC)cc12 [Compound 55, N-(2-((3-((3-hydroxy-6,7-dimethoxy-1-propylisoquinolin-4-yl)methyl)-6-methoxyquinolin-2-yl)amino)ethyl)acetamide dihydrochloride]	8.36
COc1ccc2nc(NCCNC(C)=O)c(Cc3c(O)nc(C)c4cc(OC)c(OC)cc34)cc2c1 [Compound 73, N-(2-(3-((3-hydroxy-6,7-dimethoxy-1-methylisoquinolin-4-yl)methyl)-6-methoxyquinolin-2-ylamino)ethyl)acetamide dihydrochloride]	8.57
COc1cc2c(C)nc(O)c(Cc3ccc4ncccc4c3)c2cc1OC [Compound 24, 6,7-dimethoxy-1-methyl-4-(quinolin-6-ylmethyl)isoquinolin-3-ol dihydrochloride]	7.07
CCCc1nc(O)c(Cc2ccc3oc4ccccc4c3c2)c2cc(OC)c(OC)cc12 [Compound 7, 4-(Dibenzo[b,d]furan-2-ylmethyl)-6,7-dimethoxy-1-propylisoquinolin-3-ol hydrochloride]	9.30
CCCc1nc(O)c(Cc2cc3cc(OC)ccc3nc2NCC(F)(F)F)c2cc(OC)c(OC)cc12 [Compound 54, 6,7-dimethoxy-4-((6-methoxy-2-((2,2,2-trifluoroethyl)amino)quinolin-3-yl)methyl)-1-propylisoquinolin-3-ol dihydrochloride]	7.64
CCc1nc(O)c(Cc2cc3cc(OCC4CC4)ccc3nc2NCCNC(C)=O)c2cc(OC)c(OC)cc12 [Compound 87, N-(2-((6-(cyclopropylmethoxy)-3-((1-ethyl-3-hydroxy-6,7-dimethoxyisoquinolin-4-yl)methyl)quinolin-2-yl)amino)ethyl)acetamide dihydrochloride]	8.41
CCNc1nc2ccc(OC)cc2cc1Cc1c(O)nc(CNC(C)=O)c2cc(OC)c(OC)cc12 [Compound 57, N-((4-((2-(ethylamino)-6-methoxyquinolin-3-yl)methyl)-3-hydroxy-6,7-dimethoxyisoquinolin-1-yl)methyl)acetamide dihydrochloride]	7.33
CCCc1nc(O)c(Cc2cc3cc4c(cc3nc2NC)OCO4)c2cc(OC)c(OC)cc12 [Compound 62, 6,7-dimethoxy-4-((6-(methylamino)-[1,3]-dioxolo[4,5-g]quinolin-7-yl)methyl)-1-propylisoquinolin-3-ol dihydrochloride]	8.96
CCNc1nc2ccc(OC)cc2cc1Cc1c(O)nc(COC)c2cc(OC)c(OC)cc12 [Compound 67, 4-((2-(ethylamino)-6-methoxyquinolin-3-yl)methyl)-6,7-dimethoxy-1-(methoxymethyl)isoquinolin-3-ol dihydrochloride]	8.74
CCCNc1nc2ccc(OC)cc2cc1Cc1c(O)nc(CC)c2cc(OC)c(OC)cc12 [Compound 42, 1-ethyl-6,7-dimethoxy-4-((6-methoxy-2-(propylamino)quinolin-3-yl)methyl)isoquinolin-3-ol dihydrochloride]	9.30
CCc1nc(O)c(Cc2cc3cc(OC)ccc3nc2N=[N+]=[N-])c2cc(OC)c(OC)cc12 [Compound 68, 4-((2-Azido-6-methoxyquinolin-3-yl)methyl)-1-ethyl-6,7-dimethoxyisoquinolin-3-ol dihydrochloride]	6.70
CCc1nc(O)c(Cc2cccc(-c3ccc(OC)cc3)c2)c2cc(OC)c(OC)cc12 [Compound 9, 1-ethyl-6,7-dimethoxy-4-((4′-methoxy-[1,1′-biphenyl]-3-yl)methyl)isoquinolin-3-ol hydrochloride]	4.97
CCNc1nc2ccc(OCC)cc2cc1Cc1c(O)nc(C(C)C)c2cc(OC)c(OC)cc12 [Compound 46, 4-((6-Ethoxy-2-(ethylamino)quinolin-3-yl)methyl)-1-isopropyl-6,7-dimethoxyisoquinolin-3-ol dihydrochloride]	7.54
CCCc1nc(O)c(Cc2cc3cc4c(cc3nc2N(C)C)OCO4)c2cc(OC)c(OC)cc12 [Compound 63, 4-((6-(dimethylamino)-[1,3]dioxolo[4,5-g]quinolin-7-yl)methyl)-6,7-dimethoxy-1-propylisoquinolin-3-ol dihydrochloride]	6.25
